Earlier results, collected in patent publication US20130177630A1 (priority 2012, published 2013).

Tested on: fibrolamellar hepatocellular carcinoma
Conditions: patient with fibrolamellar hepatocellular carcinoma

O=C(O)C(=O)CBr [3-bromopyruvate]
side effects: severe side effects
treatment outcome (survival): life-extension characteristics
